Assay results from a melting point compilation (Tetko et al.; mined from patent text by program, amines drawn as free bases though some values may be those of a salt).

| melting point [°C] | SMILES |
| --- | --- |
| 227 to 229 | NC1=NC(Br)=C(c2ccc(C(F)(F)F)cc2)c2ccccc2C1 |
| 221 | COC(=O)C1=C(C)Nc2nc(N3CCOCC3)nc(N3CCOCC3)c2C1c1ccccc1C#N (centres undefined) |
| 192 to 193 | COc1cc(COc2cc(C(=O)O)n(-c3ccccc3)n2)ccc1OCc1nc(-c2ccccc2)oc1C |
| 78 to 79 | COC(=O)[C@@H]1[C@@H](C(=O)O)[C@H]2C=C[C@@H]1C2 |
| 94 to 98 | Clc1cccc(Oc2ccc(OCn3cnc(Cl)c3Cl)cc2)n1 |
| 200 | O=C(OCc1ccccc1)c1ccc2cc(-c3ccc(CC(O)CO)c(C45CC6CC(CC(C6)C4)C5)c3)ccc2c1 (centres undefined) |
| 83.5 | O=c1cc(COC2CCCCO2)occ1OCc1ccc(CBr)cc1 (centres undefined) |
| 97 to 98 | CC(C)(CCl)C(=O)NCc1ccc(Cl)cc1 |
| 37 | COc1cccc(C#CC#Cc2cc(C(F)(F)F)ccc2C(F)(F)F)c1 |
| 215 to 216 | NC(=C[N+](=O)[O-])NCc1ccc(Cl)cc1 |
| 109 to 112 | COc1cc2nc(SCc3nccc(N4CCOCC4)c3Cl)[nH]c2cc1OC |
| 168 to 169 | CCOc1ccc(-c2ncc[nH]2)cc1 |
| 58 to 60 | CCOC(OCC)c1cc(NC(c2ccccc2)(c2ccccc2)c2ccccc2)c(F)c(-c2ccc(C(F)(F)F)nc2)n1 |
| 175 to 176 | CC(NC(=O)N1CCc2cc(S(=O)(=O)N3CCN(c4cccc(Cl)c4)CC3)ccc21)C(=O)O (centres undefined) |
| 184 | O=C(Cc1ccc([N+](=O)[O-])cc1)CN1C(=O)c2ccccc2C1=O |
| 193 to 194 | Cc1ccc(C(=O)Nc2c(NC(=O)CN3CCCC3)ccc3c2C(=O)c2ccccc2C3=O)cc1 |
| 162 to 163 | CC(C)(C)C(O)c1ccc(C(=O)O)cc1 (centres undefined) |
| 144 | O=C(O)C1=CSCCO1 |
| 293 | CC(=O)Nc1ncc(C#Cc2cnn3c(C(F)(F)F)cc(-c4ccc(C(F)(F)F)cc4)nc23)cn1 |
| 131 to 132 | O=C(O)CCc1cn(Cc2ccc(OCc3cccnc3)cc2)cc1-c1ccccc1 |
| 98 to 99 | CCNC(=O)c1cccc(C(F)(F)F)c1 |
| 152 to 153 | CCN1CCNC(=O)C1c1ccc(Nc2nc(Br)cn(CC)c2=O)cc1 (centres undefined) |
| 162 to 164 | COCCn1cc(-c2ccc3nnn(Cc4ccc5ncccc5c4)c3n2)cn1 |
| 160 | Nc1ccc2ccc(-c3cccc(F)c3)nc2n1 |

| melting point [°C] | SMILES |
| --- | --- |
| 30 to 32 | CCCCCCCCCCOc1ccc(C(=O)OCC(=O)OC)cc1 |
| 106 to 108 | CC(C)(C)OC(=O)N1C[C@@H]([C@H]2COC(C)(C)O2)CC1=O |
| 54 | CCCCCCCCCCCCCCN(CCCCCCCCCCCCCC)S(=O)(=O)c1ccc(C)cc1 |
| 240 | COc1ccc(N2CCN(C(N)=O)C2=O)cc1OC |
| 54 to 55 | CC(C)(C)OC(=O)CNC1Cc2ccccc2C1 |
| 165 to 168 | CCCOc1ccc(-c2c(C)c(=O)cc(-c3ccccc3)n2-c2ccccc2)cc1 |
| 166 | O=C(NCCCC(F)(F)F)C(c1ccccc1)c1ccccc1 |
| 96 to 97 | Cn1ccnc1S(=O)c1ccc(Cl)cc1 (centres undefined) |
| 108 to 112 | COC(=O)c1ccc(CCN(C)CCCC(C#N)(c2cccc(C(=O)OC)c2)C(C)C)cc1 (centres undefined) |
| 170 to 172 | O=C(O)c1ccc(C2OC2C(=O)c2ccccc2)cc1 (centres undefined) |
| 171 to 173 | CCn1ncnc1COc1nn2c(-c3ccccc3F)nncc2c1-c1ccccc1 |
| 157 to 160 | COC(=O)c1ccc(Nc2nc(Nc3ccc(C(=O)OC)cc3)nc(Nc3ccc(C(=O)OCCOc4ccc(C(C)(C)CC(C)(C)C)cc4)cc3)n2)cc1 |
| 153 to 154 | CN(C[PH](=O)O)c1cc(Oc2ccc(C(F)(F)F)cc2Cl)ccc1[N+](=O)[O-] |
| 180 to 182 | Cc1cc2c(-c3ccccc3)nc(N3CCN(CC(O)c4ccc(F)cc4)CC3)nc2s1 (centres undefined) |
| 83 to 85 | Cc1ccc(Cc2cnc(NCCCN(C)c3ncccc3C)[nH]c2=O)cn1 |
| 204 | CCc1nc(-c2ccc(N3CCN(C(=O)c4ccccc4C(F)(F)F)CC3)nn2)no1 |
| 127 to 129 | COc1ccc(N(Cc2cc(C(C)(C)C)c(O)c(C(C)(C)C)c2)S(=O)(=O)c2ccc(C)cc2)cn1 |
| 150 to 153 | CCOC(=O)c1cn(CCc2ccccc2)c2oc(CN3CCOCC3)cc2c1=O |
| 184 to 185 | O=C(Nc1ccnnc1)Oc1ccccc1 |
| 124 to 125 | CCOC(=O)c1cccc(-c2ccc(Cl)c3cc(Cc4ccc(F)c(F)c4)sc23)c1 |
| 184 | COc1ccccc1C(=O)c1cccc(NC(=O)c2ccn3c2CSC3c2cccnc2)c1 (centres undefined) |
| 218 to 222 | CCn1c(C)c(C2(c3ccc(N(C)C)cc3N(C)C)OC(=O)c3ccccc32)c2ccccc21 (centres undefined) |
| 153 to 155 | CSc1ccc(-c2cnn(C(C)(C)C)c(=O)c2OCCC(C)C)cc1 |
| 240 | CC1(C)C(=O)Nc2cc3[nH]c(-c4ccc(O)cc4)nc3cc21 |

| melting point [°C] | SMILES |
| --- | --- |
| 85 to 87 | Clc1ccc2c(Cl)c3c(nc2c1)CCCC3 |
| 134 to 138 | COC(=O)c1ccccc1C1=NC(C)C(=S)N1 (centres undefined) |
| 122 to 123 | Cc1nc(N2CCOCC2)sc1C |
| 154 to 155 | COc1c(Cl)cc2c(Cl)nc(Cl)nc2c1OC |
| 122 to 124 | COc1ccc2nc(-c3ccccc3)cc(CCNC(=O)C(F)(F)F)c2c1 |
| 116 to 118 | Cn1cc(C(O)(c2ccc3c(cnn3C(=O)NC3CC3)c2)C(F)(F)F)c2ccccc21 (centres undefined) |
| 85 to 86 | CCOC(=O)Cc1ccc(-c2nc(COc3ccc(COc4nn(-c5ccccc5)cc4/C=C\c4cncn4CC)cc3OC)c(C)o2)cc1 |
| 107 to 108 | CCNCC(=O)Nc1c(Cc2nccc3ccccc23)ccc(OC)c1OC |
| 194 to 196 | COc1cc(C)nc(NC(=O)NS(=O)(=O)Cc2ccccc2-c2nnc(SC)o2)n1 |
| 75 to 80 | CC(C)(C)C(OC(=O)Cl)C(Oc1ccc(Cl)cc1)N1CN=CN1 (centres undefined) |
| 241 | CNC(=O)Nc1snc(S(C)=O)c1C#N (centres undefined) |
| 178 to 179 | COc1ccc(S(=O)(=O)N2CCc3cccc(-c4ccc(F)cc4)c32)cc1 |
| 86 to 88 | CC(=O)Oc1ccccc1C(=O)Oc1ccc(CO[N+](=O)[O-])cc1 |
| 35 | Cc1ccc(OC(F)C(F)(F)F)c([N+](=O)[O-])c1[N+](=O)[O-] (centres undefined) |
| 96.7 to 97.5 | CC(C)=CCCC(C)=CCOc1ccc(C(=O)NCCSc2ccc(C(F)(F)F)cn2)cc1 |
| 145 to 146 | O=C(Nc1cc(-c2nc3ccccc3[nH]2)ccn1)c1ccccc1 |
| 173 to 175 | CC(=O)N[C@H](Cc1ccc(C#N)cc1)C(=O)O |
| 178 to 180 | NC(=O)c1ccc(NCc2cccc([N+](=O)[O-])c2)cc1 |
| 201 to 203 | O=C(Nc1ccc2[nH]c(=O)sc2c1)C(=O)N1CCC(Cc2ccccc2)CC1 |
| 158 to 159 | COc1ccc(-c2ccc3c(n2)CCC(C)(C)C3=O)cc1 |
| 87.5 to 89.5 | Cc1c([N+](=O)[O-])ccc(Cl)c1C#N |
| 210 to 211 | CC(C)c1cccc(C(C)C)c1NC(=O)C(C)C1c2ccccc2Oc2ccccc21 (centres undefined) |
| 184 to 186 | CS(=O)(=O)c1nc(Cl)cc(Nc2ccc(C(F)(F)F)cc2)n1 |
| 203 to 205 | NC(=NO)c1nn(-c2c(Cl)cc(C(F)(F)F)cc2Cl)c(N)c1S(=O)C(F)(F)F (centres undefined) |

| melting point [°C] | SMILES |
| --- | --- |
| 206 | Cc1nnc(SCC2=C(C(=O)O)N3C(=O)C(N)C3SC2)s1 (centres undefined) |
| 160 to 165 | O=C1OC(=O)c2cc3occc3c3cccc1c23 |
| 100 to 101 | COCCOc1cc(C)c(O)c2ccccc12 |
| 153 to 156 | CCCCOc1ccc(C(=O)Nc2ccc3cc(CN4CCCC4C)cnc3c2C)cc1 (centres undefined) |
| 178 to 180 | COc1ccc2[nH]ncc2c1Br |
| > 200 | CCCn1c(=S)[nH]c2ccc(I)cc2c1=O |
| > 310 | COc1cc2[nH]c(S)nc2cc1C |
| 147 to 149 | O=C1C=C(C2CCC(c3ccc(Cl)cc3)CC2)C(=O)c2ccccc21 (centres undefined) |
| 138 | N#CCCn1nc(-c2ccc(OCc3ccccc3)cc2)sc1=S |
| 132 to 133 | O=C(O)CCN(CCCOc1ccc(C(=O)O)cc1)c1ccc(Cl)cc1 |
| 134 to 135 | N#Cc1cc(Cn2cncn2)cc(-c2ccc(F)cc2)c1 |
| > 300 | C#Cc1c(-c2ccc(OC(F)F)c(OC3CC3)c2)[nH]c2cn[nH]c(=O)c12 |
| 108 to 110 | CC(=O)c1c(-c2ccccc2)oc(-c2ccncc2)c1C |
| 213 to 216 | C#Cc1cccc(Nc2ncnc3ccc(NC(=O)c4ccc(C(=O)Nc5ccccc5N)nc4)cc23)c1 |
| 85 to 86 | COc1c(F)ccc2ccc(Cl)nc12 |
| 87 to 90 | O=C(CCN1CCC(N2Cc3ccccc3C2=O)CC1)c1ccccc1 |
| 128 | O=C1CCC(c2ccccc2)(c2ccccc2)C2CN(C(Cc3ccccc3)=NCc3ccco3)CC12 (centres undefined) |
| 171 to 174 | Cc1ccccc1NC(=O)NCC1(c2ccccc2)CCCCC1 |
| 132 | CC(C(=S)c1cc(NC=O)ccn1)S(C)=O (centres undefined) |
| 243 to 244 | O=C(O)Cc1c(C(=O)c2cc(Cl)ccn2)[nH]c2ccc(Cl)cc12 |
| 104 to 105 | Cc1cc(F)ccc1N(C)C(=O)c1cccc(S(=O)(=O)N(C)c2ccc(Br)cc2)c1 |

| SMILES | melting point [°C] |
| --- | --- |
| c1cn(-c2ccc(N3CCNCC3)cc2)cn1 | 177 to 180 |
| CC12CCC3C(CCC4CC(O)CCC43C)C1CCC2C#N (centres undefined) | 156 to 158 |
| CCN(Cc1ccc(Cl)nc1)C1=C([N+](=O)[O-])C2CCC(O2)N1C (centres undefined) | 125 to 126 |
| COc1cc2c(c(OC)c1OC)-c1ccc(OC(=O)N3CCC(N4CCCCC4)CC3)cc1C(NC(C)=O)CC2 (centres undefined) | 168 to 175 |
| CC(C)(C)OC(=O)c1ncn2c1[C@@H]1CCCN1C(=O)c1ccccc1-2 | 237 to 238 |
| COc1ccc(C2CC3(C)C(C=CC3(C)O)C3CCC4=CC(=O)CCC4C23)cc1 (centres undefined) | 192 |
